Data published in patent US20220363665A1, “QUINOLINE COMPOUNDS FOR THE TREATMENT OF AUTOIMMUNE DISEASE” (Hoffmann-La Roche Inc., priority 2019, published 2022).

Target: T1, human TLR8 (Homo sapiens, UniProt Q9NR97)
T1 construct: host or cells: HEK293 (HEK-Blue hTLR8)
T1 sequence (Q9NR97 27-1041): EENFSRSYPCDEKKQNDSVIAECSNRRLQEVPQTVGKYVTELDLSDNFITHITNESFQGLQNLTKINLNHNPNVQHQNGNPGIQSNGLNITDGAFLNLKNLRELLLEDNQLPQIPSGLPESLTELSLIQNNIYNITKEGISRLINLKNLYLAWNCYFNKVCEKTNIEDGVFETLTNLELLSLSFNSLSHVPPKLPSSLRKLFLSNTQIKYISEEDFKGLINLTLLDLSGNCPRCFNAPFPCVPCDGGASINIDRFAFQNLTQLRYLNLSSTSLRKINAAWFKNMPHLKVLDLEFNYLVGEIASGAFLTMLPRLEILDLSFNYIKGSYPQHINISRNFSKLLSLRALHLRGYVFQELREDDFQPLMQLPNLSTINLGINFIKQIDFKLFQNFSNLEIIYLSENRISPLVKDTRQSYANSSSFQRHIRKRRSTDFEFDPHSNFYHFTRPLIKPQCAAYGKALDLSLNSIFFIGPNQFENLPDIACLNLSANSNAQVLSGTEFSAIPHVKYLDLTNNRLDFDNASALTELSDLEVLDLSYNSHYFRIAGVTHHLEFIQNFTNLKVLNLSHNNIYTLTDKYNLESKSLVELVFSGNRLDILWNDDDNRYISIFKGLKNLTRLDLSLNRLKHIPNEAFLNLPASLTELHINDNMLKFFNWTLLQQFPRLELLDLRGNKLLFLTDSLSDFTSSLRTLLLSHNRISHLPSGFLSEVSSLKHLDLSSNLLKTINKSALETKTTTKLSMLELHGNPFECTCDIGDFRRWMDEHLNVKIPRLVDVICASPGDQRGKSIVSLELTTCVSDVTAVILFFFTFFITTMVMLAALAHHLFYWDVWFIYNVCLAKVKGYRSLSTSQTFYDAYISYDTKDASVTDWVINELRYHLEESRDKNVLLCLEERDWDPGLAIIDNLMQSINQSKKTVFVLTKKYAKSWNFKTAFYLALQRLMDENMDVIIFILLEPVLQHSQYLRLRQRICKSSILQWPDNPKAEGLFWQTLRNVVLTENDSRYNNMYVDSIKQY
Test: HEK293-Blue-hTLR-8 cells assay (SEAP reporter, R848 stimulation)
Format: cell-based
Conditions: HEK293-Blue-hTLR8 cells, R848, 20 hrs
Procedure: The following tests were carried out in order to determine the activity of the compounds of formula (I) in HEK293-Blue-hTLR-7/8/9 cells assay.
HEK293-Blue-hTLR-8 Cells Assay:
A stable HEK293-Blue-hTLR-8 cell line was purchased from InvivoGen (Cat. #: hkb-htlr8, San Diego, Calif., USA). These cells were originally designed for studying the stimulation of human TLR8 by monitoring the activation of NF-κB. A SEAP (secreted embryonic alkaline phosphatase) reporter gene was placed under the control of the IFN-β minimal promoter fused to five NF-κB and AP-1-binding sites. The SEAP was induced by activating NF-κB and AP-1 via stimulating HEK-Blue hTLR8 cells with TLR8 ligands. Therefore the reporter expression was declined by TLR8 antagonist under the stimulation of a ligand, such as R848, for incubation of 20 hrs. The cell culture supernatant SEAP reporter activity was determined using QUANTI-Blue™ kit (Cat #. rep-qbl, Invivogen, San Diego, Calif., USA) at a wavelength of 640 nm, a detection medium that turns purple or blue in the presence of alkaline phosphatase.
HEK293-Blue-hTLR8 cells were incubated at a density of 250,000˜450,000 cells/mL in a volume of 170 μL in a 96-well plate in Dulbecco's Modified Eagle's medium (DMEM) containing 4.5 g/L glucose, 50 U/mL penicillin, […], […], 2 mM L-glutamine, 10% (v/v) heat-inactivated fetal bovine serum with addition of 20 μL test compound in a serial dilution in the presence of final DMSO at 1% and 10 μL of 60 μM R848 in above DMEM, perform incubation under 37° C. in a CO2 incubator for 20 hrs. Then 20 μL of the supernatant from each well was incubated with 180 μL Quanti-blue substrate solution at 37° C. for 2 hrs and the absorbance was read at 620˜655 nm using a spectrophotometer. The signalling pathway that TLR8 activation leads to downstream NF-KB activation has been widely accepted, and therefore similar reporter assay was modified for evaluating TLR8 antagonist.

Row | IC50 | Structure (SMILES)
1 | < 3 nM | C[C@@H]1CN(c2ccc(C(F)(F)F)c3ncccc23)C[C@H](C(=O)N[C@@H]2CNC[C@@H]2F)O1 (single isomer, unassigned) [Example 2A]
2 | 8 nM | C[C@@H]1CN(c2ccc(C(F)(F)F)c3ncccc23)C[C@H](C(=O)N[C@H]2CNC[C@H]2F)O1 (single isomer, unassigned) [Example 2B]
3 | 16 nM | C[C@@H]1CN(c2ccc(C(F)(F)F)c3ncccc23)C[C@H](C(=O)NC2C3CNCC2COC3)O1 (single isomer, unassigned) [Example 46A]
4 | 55 nM | C[C@@H]1CN(c2ccc(C(F)(F)F)c3ncccc23)C[C@H](C(=O)NC2C3CNCC2COC3)O1 (single isomer, unassigned) [Example 46B]
5 | 22 nM | C[C@@H]1CN(c2ccc(C(F)(F)F)c3ncccc23)C[C@H](C(=O)NC2CC3CNCC32)O1 (single isomer, unassigned) [Example 49A]
6 | 9 nM | C[C@@H]1CN(c2ccc(C(F)(F)F)c3ncccc23)C[C@H](C(=O)NC2CC3CNCC32)O1 (single isomer, unassigned) [Example 49B]
7 | 5 nM | C[C@@H]1CN(c2ccc(C(F)(F)F)c3ncccc23)C[C@H](C(=O)NC2CC3CNCC32)O1 (single isomer, unassigned) [Example 49C]
8 | 6 nM | C[C@@H]1CN(c2ccc(C(F)(F)F)c3ncccc23)C[C@H](C(=O)NC2CNC[C@@H]2F)O1 (stereo partly drawn) [Example 2, cis-(2R,6R)-N-(4-fluoropyrrolidin-3-yl)-6-methyl-4-[8-(trifluoromethyl)-5-quinolyl]morpholine-2-carboxamide]
9 | < 3 nM | C[C@@H]1CN(c2ccc(C(F)(F)F)c3ncccc23)C[C@H](C(=O)NCC2CN(C)CCO2)O1 (stereo partly drawn) [Example 3, (2R,6R)-6-methyl-N-[(4-methylmorpholin-2-yl)methyl]-4-[8-(trifluoromethyl)-5-quinolyl]morpholine-2-carboxamide]
10 | 10 nM | C[C@@H]1CN(c2ccc(C(F)(F)F)c3ncccc23)C[C@H](C(=O)NCC2CCCCN2C)O1 (stereo partly drawn) [Example 4, (2R,6R)-6-methyl-N-[(1-methyl-2-piperidyl)methyl]-4-[8-(trifluoromethyl)-5-quinolyl]morpholine-2-carboxamide]
11 | < 3 nM | C[C@@H]1CN(c2ccc(C(F)(F)F)c3ncccc23)C[C@H](C(=O)NC2CCN(C)CC2)O1 [Example 5, (2R,6R)-6-methyl-N-(1-methyl-4-piperidyl)-4-[8-(trifluoromethyl)-5-quinolyl]morpholine-2-carboxamide]
12 | < 3 nM | C[C@@H]1CN(c2ccc(C(F)(F)F)c3ncccc23)C[C@H](C(=O)NC2CCCNCC2)O1 (stereo partly drawn) [Example 8, (2R,6R)-N-(azepan-4-yl)-6-methyl-4-[8-(trifluoromethyl)-5-quinolyl]morpholine-2-carboxamide]
13 | 29 nM | C[C@@H]1CN(c2ccc(C(F)(F)F)c3ncccc23)C[C@H](C(=O)N2CCC(N)C2)O1 (stereo partly drawn) [Example 10, (3-aminopyrrolidin-1-yl)-[(2R,6R)-6-methyl-4-[8-(trifluoromethyl)-5-quinolyl]morpholin-2-yl]methanone]
14 | 62 nM | C[C@@H]1CN(c2ccc(C(F)(F)F)c3ncccc23)C[C@H](C(=O)NCC2COCCN2C)O1 (stereo partly drawn) [Example 11, (2R,6R)-6-methyl-N-[(4-methylmorpholin-3-yl)methyl]-4-[8-(trifluoromethyl)-5-quinolyl]morpholine-2-carboxamide]
15 | 7 nM | C[C@@H]1CN(c2ccc(C(F)(F)F)c3ncccc23)C[C@H](C(=O)NC2CNCCOC2)O1 (stereo partly drawn) [Example 14, (2R,6R)-6-methyl-N-(1,4-oxazepan-6-yl)-4-[8-(trifluoromethyl)-5-quinolyl]morpholine-2-carboxamide]

The remaining lines, values behind:

Row | Structure (SMILES) | IC50
16 | C[C@@H]1CN(c2ccc(C(F)(F)F)c3ncccc23)C[C@H](C(=O)NC2CC3CCCC(C2)N3)O1 (single isomer, unassigned) [Example 34A] | < 3 nM
17 | C[C@@H]1CN(c2ccc(C(F)(F)F)c3ncccc23)C[C@H](C(=O)NC2CC3CCCC(C2)N3)O1 (single isomer, unassigned) [Example 34B] | 6 nM
18 | CC(NC(=O)[C@H]1CN(c2ccc(C(F)(F)F)c3ncccc23)C[C@@H](C)O1)C1CN(C)CCO1 (single isomer, unassigned) [Example 35A] | 6 nM
19 | CC(NC(=O)[C@H]1CN(c2ccc(C(F)(F)F)c3ncccc23)C[C@@H](C)O1)C1CN(C)CCO1 (single isomer, unassigned) [Example 35B] | < 3 nM
20 | C[C@@H]1CN(c2ccc(C(F)(F)F)c3ncccc23)C[C@H](C(=O)NC2CC3CCC(C2)N3)O1 (single isomer, unassigned) [Example 47A] | < 3 nM
21 | C[C@@H]1CN(c2ccc(C(F)(F)F)c3ncccc23)C[C@H](C(=O)NC2CC3CCC(C2)N3)O1 (single isomer, unassigned) [Example 47B] | < 3 nM
22 | C[C@H]1C[C@@H](N)CN(c2ccc(C(F)(F)F)c3ncccc23)C1 [Example 1, (3R,5S)-5-methyl-1-[8-(trifluoromethyl)-5-quinolyl]piperidin-3-amine] | < 3 nM
23 | C[C@@H]1CN(c2ccc(C(F)(F)F)c3ncccc23)C[C@H](C(=O)NCC(C)(C)N)O1 [Example 6, (2R,6R)-N-(2-amino-2-methyl-propyl)-6-methyl-4-[8-(trifluoromethyl)-5-quinolyl]morpholine-2-carboxamide] | 26 nM
24 | C[C@@H]1CN(c2ccc(C(F)(F)F)c3ncccc23)C[C@H](C(=O)N2CC(N)C2)O1 [Example 7, (3-aminoazetidin-1-yl)-[(2R,6R)-6-methyl-4-[8-(trifluoromethyl)-5-quinolyl]morpholin-2-yl]methanone] | 35 nM
25 | C[C@@H]1CN(c2ccc(C(F)(F)F)c3ncccc23)C[C@H](C(=O)NC2CN(C)CC23CC3)O1 (stereo partly drawn) [Example 9, (2R,6R)-6-methyl-N-(5-methyl-5-azaspiro[2.4]heptan-7-yl)-4-[8-(trifluoromethyl)-5-quinolyl]morpholine-2-carboxamide] | < 3 nM
26 | C[C@@H]1CN(c2ccc(C(F)(F)F)c3ncccc23)C[C@H](C(=O)N2CCC(N)CC2)O1 [Example 12, (4-amino-1-piperidyl)-[(2R,6R)-6-methyl-4-[8-(trifluoromethyl)-5-quinolyl]morpholin-2-yl]methanone] | 5 nM
27 | C[C@@H]1CN(c2ccc(C(F)(F)F)c3ncccc23)C[C@H](C(=O)NCCN2CCOCC2)O1 [Example 13, (2R,6R)-6-methyl-N-(2-morpholinoethyl)-4-[8-(trifluoromethyl)-5-quinolyl]morpholine-2-carboxamide] | 52 nM
28 | Cc1ccc(N2C[C@@H](C)C[C@@H](N)C2)c2cccnc12 [Example 15, (3R,5S)-5-methyl-1-(8-methyl-5-quinolyl)piperidin-3-amine] | 15 nM
29 | Cc1ccc(N2C[C@@H](C)O[C@@H](C(=O)NC3CCN(C)CC3)C2)c2cccnc12 [Example 16, (2R,6R)-6-methyl-N-(1-methyl-4-piperidyl)-4-(8-methyl-5-quinolyl)morpholine-2-carboxamide] | 8 nM
30 | Cc1ccc(N2C[C@@H](C)O[C@@H](C(=O)NCC3CN(C)CCO3)C2)c2cccnc12 (stereo partly drawn) [Example 17, (2R,6R)-6-methyl-N-[(4-methylmorpholin-2-yl)methyl]-4-(8-methyl-5-quinolyl)morpholine-2-carboxamide] | 25 nM
